Laboratory results reported in PMC6204753, “Non-native autoinducer analogs capable of modulating the SdiA quorum sensing receptor in Salmonella enterica serovar Typhimurium” (Beilstein Journal of Organic Chemistry, 2018).
Where two headings read alike, the source gives them in different places.

Experiments:
[1] = biological target: T1, SdiA (Salmonella enterica subsp. enterica serovar Typhimurium, UniProt O66040); parameters: method as in PMID 17085703; settings: racemates; cited from earlier work
T1 sequence (O66040 entry or part of it): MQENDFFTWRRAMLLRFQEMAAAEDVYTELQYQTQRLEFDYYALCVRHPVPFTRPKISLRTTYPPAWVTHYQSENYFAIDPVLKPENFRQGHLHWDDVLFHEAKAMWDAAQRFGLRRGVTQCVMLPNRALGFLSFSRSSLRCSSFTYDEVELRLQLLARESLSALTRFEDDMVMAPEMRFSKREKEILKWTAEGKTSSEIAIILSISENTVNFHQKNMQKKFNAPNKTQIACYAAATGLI

[2] = biological target: T1, SdiA; assay: S. Typhimurium-pJNS25 SdiA reporter, competitive antagonism against 10 nM L-OOHL; assay type: cell-based; settings: average ± STD, change in activity from 10 nM 2 (OOHL)
Method in brief: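 S. Typhimurium-pJNS25 (native SdiA, srgE promoter–luxCDABE) subcultured 1:100 in LB and incubated 6 h at 37 °C, 200 rpm, with compound (1% DMSO); antagonism run against 10 nM L-OOHL. Luminescence normalised between 10 μM OOHL and 1% DMSO controls; triplicates; four-parameter dose–response fits.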

[3] = biological target: S. Typhimurium SdiA (Salmonella enterica subsp. enterica serovar Typhimurium, UniProt O66040); assay: E. coli JLD271-pJN105SE-pSC11SE SdiA reporter, agonism; assay type: cell-based
S. Typhimurium SdiA, sequence (O66040 entry or part of it): as above
Text: Biological assays for SdiA activity. Cell-based reporter strains that rely on detecting the transcriptional activity of LuxR-type receptors are commonly used to assess the activity of exogenous ligands. We used the S. Typhimurium-pJNS25 reporter strain constructed by Smith and Ahmer and also used by Janssens et al. to examine SdiA activity. This strain naturally produces SdiA and contains a reporter plasmid with the promoter region for srgE fused to the luxABCDE operon of V. fischeri (see Experimental section for details of all strains and plasmids). SdiA activity is thus reported by the production of luciferase and resulting bioluminescence. We also prepared an SdiA reporter in E. coli (JLD271-pJN105SE-pSC11SE) to examine S. Typhimurium SdiA activity in an alternate background and with a different reporter gene output. E. coli JLD271 is the sdiA mutant of K-12 E. coli. […] SdiA activity is then measured using standard β-galactosidase assays. […]
E. coli SdiA reporter assay. […] A 50 μL aliquot of culture from each well was lysed in 200 μL of Z-buffer and 8 μL of chloroform, and a 100 μL aliquot of this lysate was incubated with 25 μL of 4 mg/mL ONPG for 20 min at 30 °C before reading absorption at 420 nm and 550 nm using a Biotek Synergy 2 plate reader. […]

[4] = biological target: T1, SdiA; assay: S. Typhimurium-pJNS25 SdiA reporter, agonism (luminescence); assay type: cell-based
Text: Biological assays for SdiA activity. Cell-based reporter strains that rely on detecting the transcriptional activity of LuxR-type receptors are commonly used to assess the activity of exogenous ligands. We used the S. Typhimurium-pJNS25 reporter strain constructed by Smith and Ahmer and also used by Janssens et al. to examine SdiA activity. This strain naturally produces SdiA and contains a reporter plasmid with the promoter region for srgE fused to the luxABCDE operon of V. fischeri (see Experimental section for details of all strains and plasmids). SdiA activity is thus reported by the production of luciferase and resulting bioluminescence. We also prepared an SdiA reporter in E. coli (JLD271-pJN105SE-pSC11SE) to examine S. Typhimurium SdiA activity in an alternate background and with a different reporter gene output. […] This reporter construct uses an arabinose inducible promoter to produce S. Typhimurium SdiA and the promoter region for srgE fused to lacZ to report SdiA activity. SdiA activity is then measured using standard β-galactosidase assays. In both reporter strains, signal was normalized to the difference between the positive control (10 μM OOHL) and the negative control (1% DMSO; no compound).
Salmonella SdiA reporter assay. S. Typhimurium-pJNS25 was grown 16–18 h overnight in LB, diluted 1:100 in fresh LB medium, and then incubated for 6 h at 37 °C with shaking at 200 rpm in the presence of compounds (1% DMSO). […] All compounds were screened at 100 μM and 1 μM in triplicate in agonism and antagonism assays. […] Dose–response analyses were performed by preparing dilutions of compounds in DMSO and testing each concentration in the agonism or antagonism assays. Competition dose–response assays (data in Figure 5) were performed in the same manner as the antagonism assays, except instead of OOHL being added to the subculture, the antagonist being tested was added. Non-linear regression curve fits were generated using GraphPad Prism software (version 6) using variable slope (four parameter) dose–response analysis.

[5] = biological target: T1, SdiA; assay: Competition dose–response of OOHL (2) against antagonists in the S. Typhimurium SdiA reporter; assay type: cell-based; settings: no antagonist (0)
Experimental: We also submitted compounds 11, R8, and F45 to competition-type assays in the S. Typhimurium SdiA reporter to further characterize their activity profiles. […] The results are shown in Figure 5 (EC50 and maximal activity values listed in Supporting Information File 3).
(§1) Salmonella SdiA reporter assay. S. Typhimurium-pJNS25 was grown 16–18 h overnight in LB, diluted 1:100 in fresh LB medium, and then incubated for 6 h at 37 °C with shaking at 200 rpm in the presence of compounds (1% DMSO). For antagonism assays, OOHL (2) at its EC90 (10 nM, 0.1% DMSO) was added to the subculture immediately prior to adding the compound for testing. All compounds were screened at 100 μM and 1 μM in triplicate in agonism and antagonism assays. Raw luminescence values were divided by the OD600 and then normalized to the controls; negative (DMSO) and positive (10 μM OOHL) control samples were included in every assay plate and used to normalize assay results, setting the positive control to 100% and the negative control to 0%. Luminescence was measured using a Biotek Synergy 2 plate reader and Gen 5 software (version 1.05). Dose–response analyses were performed by preparing dilutions of compounds in DMSO and testing each concentration in the agonism or antagonism assays. Competition dose–response assays (data in Figure 5) were performed in the same manner as the antagonism assays, except instead of OOHL being added to the subculture, the antagonist being tested was added. Non-linear regression curve fits were generated using GraphPad Prism software (version 6) using variable slope (four parameter) dose–response analysis.

[6] = system: S. Typhimurium-pJNS25; assay type: cell-based; settings: 100 μM compound; footnote f: Cell growth inhibited at this compound concentration
Experimental: as §1

CCCCCC(=O)CC(=O)NC1CCSC1=O (racemic) [DL-3-oxo-C8 thiolactone]
EC50 [1]: 1 nM

CCCCCCCCCC(=O)NC1CCOC1=O (racemic) [DL-DHL (C10)]
EC50 [1]: 1000 nM

CCCC(=O)CC(=O)NC1CCOC1=O (racemic) [DL-OHHL (3-oxo-C6)]
EC50 [1]: 5 nM

CCCCCCCC(=O)NC1CCOC1=O (racemic) [DL-OHL (C8)]
EC50 [1]: 7 nM

CCCCCC(=O)CC(=O)NC1CCOC1=O (racemic) [DL-OOHL, N-(3-oxooctanoyl) DL-homoserine lactone]
EC50 [1]: 3 nM

CCCCCC(=O)CC(=O)N[C@H]1CCOC1=O [compound 2, reference compound]
inhibition at 1 µM ([2]; 1 μM compound, read-out: Antagonism 1 μM Inhibition (%)): -2 ± 9%
inhibition at 100 µM ([2]; 100 μM compound, read-out: Antagonism 100 μM Inhibition (%)): 9 ± 5%
EC50 [3]: 1.5 nM
EC90 ([4]; S. Typhimurium reporter): 10 nM
EC50 ([4]; agonism dose–response, read-out: EC50): 1.03 nM
Emax ([4]; maximal activity (efficacy) from agonism dose–response, 10 μM OOHL = 100%, DMSO = 0%, read-out: activation (%)): 110%
EC50 [5]: 1.03 nM

O=C1C=C(Br)C(=CBr)O1 [compound 21, reference compound]
Antagonism 1 μM Inhibition (%) ([2]; 1 μM compound): 29 ± 13%
cell growth [6]: --f
